Reference: patent US7531695B2, “Therapeutic agents for the treatment of cancer, metabolic diseases and skin disorders” (Auspex Pharmaceutical, Inc, priority 2004, dated 2009)
Where a name gives a salt, the structure may show the parent alone.

Assays:
[1] = tested on: human head and neck squamous cell carcinoma cells (SCC 103); experiment: SCC103 Tumor Cell Proliferation Assay; assay type: cell-based; settings: SCC 103 cells; compared to Bexarotene; FIG. 1
Description: SCC 103 cells (15,000 per well in 90% EMEM medium plus 10% Fetal Bovine Serum [FBS]) were pre-incubated in a black clear bottom 96-well plate in an atmosphere of 5% CO2 at 37° C. for 24 hours. Stock solutions of compounds in DMSO were diluted using a buffer and dilutions were added to each well. […] The final assay pH was 7.4. The cells were incubated in EMEM medium for an additional 72 hours. Alamar Blue (10% of culture volume) was added and the plate was incubated for an additional 12 hours. Fluorescence intensity was measured using a Gemini plate reader with excitation at 530 nm and emission at 590 nm. A decrease of 50 percent or more (≧50%) in fluorescence intensity relative to vehicle treated controls is an indication of significant anti-cancer activity.

[2] = tested on: A375 cells; experiment: A375 Tumor Cell Proliferation Assay; assay type: cell-based; settings: Homo sapiens, A-375, read-out: LC50 (50% Lethal Concentration)
Description: A375 cells (5,000 per well in 90% RPMI-1640 plus 10% Fetal Bovine Serum [FBS]) were pre-incubated in a black clear bottom 96-well plate in an atmosphere of 5% CO2 at 37° C. for 24 hours. Stock solutions of compounds in DMSO were diluted using a buffer and dilutions were added to each well. […] The final assay pH was 7.4. The cells were incubated in RPMI-1640 with each compound for an additional 72 to 168 hours. Alamar Blue was added and the plate was incubated for an additional 12 hours. Fluorescence intensity was measured using a Gemini plate reader with excitation at 530 nm and emission at 590 nm. A decrease of 50 percent or more (≧50%) in fluorescence intensity relative to vehicle treated controls is an indication of significant anti-cancer activity.

Compound | growth inhibitory effect [1] | CC50 [2] [µM]
Cc1cc2c(cc1C(=O)c1ccc(C3=C(O)CCCC3=O)cc1)C(C)(C)CCC2(C)C [Example 8, 3-Hydroxy-2-[4(3,5,5,8,8-pentamethyl-5,6,7,8-tetrahydronaphthalene-2-carbonyl)-phenyl]-cyclohex-2-enone potassium salt] | enhanced activity | –
C=C(c1ccc(C2=C(O)CCCC2=O)cc1)c1cc2c(cc1C)C(C)(C)CCC2(C)C [Example 5, 5-3-Hydroxy-2-{4-[1-(3,5,5,8,8-pentamethyl-5,6,7,8-tetrahydro-naphthalen-2-yl)-vinyl]-phenyl}-cyclohex-2-enone] | enhanced activity | –
COc1cccc2c1C(=O)c1c(O)c3c(c(O)c1C2=O)C[C@@](O)(C(=O)CO)C[C@@H]3O[C@H]1C[C@H](N)[C@H](O)[C@H](C)O1 [Doxorubicin] | – | 8
